The source made the active and inactive calls. The rule behind the calls is not given here.
Tests used:
[1] = test system: MCF7; assay: Anticancer activity against human MCF7 cells by MTT assay; type: functional, cell-based
[2] = test system: U-937; assay: Anticancer activity against human U937 cells by MTT assay; type: functional, cell-based
[3] = Anticancer activity against human COLO205 cells by MTT assay; type: functional, cell-based; settings: COLO 205
[4] = test system: A549; assay: Anticancer activity against human A549 cells by MTT assay; type: functional, cell-based
[5] = test system: COLO 205; assay: Induction of DNA damage in human COLO205 cells assessed as tail DNA formation by alkaline comet assay (reference value: 0%); type: functional
[6] = test system: COLO 205; assay: Increase in Bax expression in human COLO205 cells after 24 hrs by western blot analysis; type: functional, cell-based
[7] = Decrease in Bcl2 expression in human COLO205 cells after 24 hrs by western blot analysis; type: functional, cell-based; settings: COLO 205
[8] = test system: COLO 205; assay: Induction of cell cycle arrest in human COLO205 cells assessed as accumulation at G2/M phase after 24 hrs by flow cytometry; type: functional, cell-based
[9] = test system: COLO 205; assay: Increase in procaspase-3 expression in human COLO205 cells after 24 hrs by western blot analysis; type: functional, cell-based
[10] = Decrease in NFkappaB expression in human COLO205 cells after 24 hrs by western blot analysis; type: functional, cell-based; settings: COLO 205
[11] = test system: COLO 205; assay: Effect on CDK1 expression in human COLO205 cells by western blot analysis; type: functional, cell-based
[12] = test system: COLO 205; assay: Increase in active caspase-3 expression in human COLO205 cells after 24 hrs by western blot analysis; type: functional, cell-based
[13] = test system: COLO 205; assay: Increase in Apaf1 expression in human COLO205 cells after 24 hrs by western blot analysis; type: functional, cell-based
[14] = Decrease in cyclin B1 expression in human COLO205 cells by western blot analysis; type: functional, cell-based; settings: COLO 205
[15] = test system: COLO 205; assay: Increase in caspase-9 expression in human COLO205 cells after 24 hrs by western blot analysis; type: functional, cell-based

SMILES | IC50 [1] [µM] | IC50 [2] [µM] | IC50 [4] [µM] | IC50 [3] [µM] | Activity [5] [%] | inhibition [6] | Activity [7] | Activity [8] | Activity [9] | inhibition [10] | Activity [11] | Activity [12] | Activity [13] | inhibition [14] | Activity [15]
C#CCN(c1nc2ccc(F)cc2s1)c1nc2ccc(OC)cc2s1 | 27.8 | 24.9 | 24.4 | 30.3 |  |  |  |  |  |  |  |  |  |  | 
Brc1ccc(-c2cc(CN(c3ncccn3)c3nc4ccccc4s3)on2)cc1 | 21.1 | 13.6 | 31.5 | 8.82 |  |  |  |  |  |  |  |  |  |  | 
COc1ccc2nc(N(Cc3cc(-c4cc(OC)c(OC)c(OC)c4)no3)c3nc4ccc(F)cc4s3)sc2c1 | 26.6 | 44 | 61.9 | 11.8 |  |  |  |  |  |  |  |  |  |  | 
COc1ccc2nc(N(Cc3cc(-c4ccc(Br)cc4)no3)c3nc4ccc(F)cc4s3)sc2c1 | 41.1 | 34.9 | 32.7 | 7 |  |  |  |  |  |  |  |  |  |  | 
COc1ccc2nc(N(Cc3cc(-c4ccccc4F)no3)c3nc4ccc(F)cc4s3)sc2c1 | 28.5 | 29.4 | 51.8 | 13.4 |  |  |  |  |  |  |  |  |  |  | 
COc1ccc(-c2cc(CN(c3nc4ccc(F)cc4s3)c3nc4ccc(OC)cc4s3)on2)cc1 | 32.4 | 138 | 38.8 | 11.4 |  |  |  |  |  |  |  |  |  |  | 
COc1ccc(-c2cc(CN(c3ncccn3)c3nc4ccccc4s3)on2)cc1 | 30.7 | 13.9 | 30.4 | 5.04 | 17.72 | Active | Active | Active | Active | Active | inactive | Active | Active | Active | Active

Molecules with a lower IC50 [1], results first:

IC50 [1] [µM] | IC50 [2] [µM] | IC50 [4] [µM] | SMILES | IC50 [3] [µM] | Activity [5] [%] | inhibition [6] | Activity [7] | Activity [8] | Activity [9] | inhibition [10] | Activity [11] | Activity [12] | Activity [13] | inhibition [14] | Activity [15]
14.8 | 13.5 | 31.8 | FC(F)(F)Oc1ccc(-c2cc(CN(c3ncccn3)c3nc4ccccc4s3)on2)cc1 | 5.69 |  |  |  |  |  |  |  |  |  |  | 
14.1 | 42.9 | 26.5 | COc1ccc2nc(N(Cc3cc(-c4ccc(SC(F)(F)F)cc4)no3)c3nc4ccc(F)cc4s3)sc2c1 | 11.1 |  |  |  |  |  |  |  |  |  |  | 
13.4 | 26.1 | 28.4 | COc1cc(-c2cc(CN(c3ncccn3)c3nc4ccccc4s3)on2)cc(OC)c1OC | 10.2 |  |  |  |  |  |  |  |  |  |  | 
17.2 | 19.4 | 29.8 | FC(F)(F)Sc1ccc(-c2cc(CN(c3ncccn3)c3nc4ccccc4s3)on2)cc1 | 10.1 |  |  |  |  |  |  |  |  |  |  | 
18.3 | 15.7 | 17.4 | C#CCN(c1ncccn1)c1nc2ccccc2s1 | 12 | 4.194 | Active | Active | Active |  |  |  |  |  |  | 
19.5 | 27.6 | 25.4 | Fc1ccccc1-c1cc(CN(c2ncccn2)c2nc3ccccc3s2)on1 | 13.2 |  |  |  |  |  |  |  |  |  |  | 
17.4 | 23.1 | 37.1 | COc1ccc2nc(N(Cc3cc(-c4ccc(OC(F)(F)F)cc4)no3)c3nc4ccc(F)cc4s3)sc2c1 | 9.94 |  |  |  |  |  |  |  |  |  |  | 
0.008 | 10.1 | 4.7 | COc1cc([C@@H]2c3cc4c(cc3[C@@H](O[C@@H]3O[C@@H]5CO[C@@H](C)O[C@H]5[C@H](O)[C@H]3O)[C@H]3COC(=O)[C@H]23)OCO4)cc(OC)c1O [ETOPOSIDE] | 0.47 | 6.564 | Active | Active | Active |  |  |  |  |  |  | 
